Results: patent US5686486A, “4-hydroxy-benzopyran-2-ones and 4-hydroxy-cycloalkyl[b]pyran-2-ones useful to treat retroviral infections” (priority 1995, dated 1997)

How the values were obtained:
[1] = biological target: T1, HIV-1 protease (Human immunodeficiency virus type 1 group M subtype B, UniProt P04585); test: biochemical; conditions: for IC50: HIV-1 Protease IC50; for inhibition at 0.098 µM: read-out: HIV-1 Protease % Inhib, dose 0.098 uM; for inhibition at 0.78 µM: read-out: HIV-1 Protease % Inhib, dose 0.780 uM; for inhibition at 1.56 µM: read-out: HIV-1 Protease % Inhib, dose 1.560 uM; for inhibition at 12.5 µM: read-out: HIV-1 Protease % Inhib, dose 12.500 uM; for inhibition at 25 µM: read-out: HIV-1 Protease % Inhib, dose 25.000 uM; for inhibition at 50 µM: read-out: HIV-1 Protease % Inhib, dose 50.000 uM; for inhibition at 100 µM: read-out: HIV-1 Protease % Inhib, dose 100.000 uM; for inhibition at 0.123 µM: read-out: HIV-1 Protease % Inhib, dose 0.123 uM; for inhibition at 0.37 µM: read-out: HIV-1 Protease % Inhib, dose 0.370 uM; for inhibition at 1.1 µM: read-out: HIV-1 Protease % Inhib, dose 1.100 uM; for inhibition at 3.3 µM: read-out: HIV-1 Protease % Inhib, dose 3.300 uM; for inhibition at 10 µM: read-out: HIV-1 Protease % Inhib, dose 10.000 uM; for inhibition at 30 µM: read-out: HIV-1 Protease % Inhib, dose 30.000 uM
Outline: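 Percent inhibition derived from fluorescent cleavage product separated by filtration after streptavidin-bead capture of intact biotin/FITC substrate. Reaction: enzyme (10 μl, 0.1 μM stock) with substrate (20 μl, 0.2 μM stock) and compound, 1 h at room temperature in dark, pH 5.5 acetate buffer with 1.0 M NaCl and 0.05% NP-40.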

[2] = tested on: p55 Processing in vVk-1 infected CV-1 Cells; test: CV-1 Cell Assay: inhibition of p55 processing in vVK-1 infected CV-1 cells (p24 levels); format: cell-based; conditions: Cercopithecidae, CV-1, read-out: CV-1 Cell Assay % Inhib
Protocol: Inhibition of p55 Processing in vVk-1 infected CV-1 Cells. CV-1 cells are seeded at 2×10^5 cells per well in 24-well Costar dishes and infected 4 to 6 hours later with vVK-1 at 5 plaque-forming units (PFU) per cell. Each compound is dissolved in Dulbecco's Modified Eagles medium (DMEM) containing 2.5% fetal bovine serum and is added to duplicate wells at the indicated final concentration 2 hours after virus addition. After 24 hours, the culture medium is removed and the monolayer washed with 1 mL of phosphate buffered saline (PBS), and the cells lysed by the addition of 0.1 mL of loading buffer (62.5 mM Tris (hydroxymethyl) aminomethane (Tris), pH 6.8, 2.3% sodium dodecyl sulfate (SDS), 5% β-mercaptoethanol, and 10% glycerol). The cell lysates are collected individually, placed in boiling water for 3 minutes, and then 0.025 mL of each sample is subjected to electrophoresis on 12% SDS-polyacrylamide gels. The proteins are electroblotted onto nitrocellulose and analyzed by protein immunoblotting. The primary antibodies are sheep antibody to p24 (International Enzyme, Inc., Fallbrook, Calif.) and the secondary antibody is alkaline-phosphatase-conjugated rabbit antibody to sheep immunoglobulin G (Kirkegaard & Perry Laboratories, Gaithersburg, Md.). The levels of immunoreactive proteins are quantified by densitometry (Bio-Rad, Model 260) with the accompanying 1-D Analyst Software. Inhibition refers to the mean percent decrease in p24 levels determined from the duplicate drug-treated samples compared to the nondrug-treated controls. […] Val-Ile-Amp (also known as N-[1-(cyclohexylmethyl)-2,3-dihydroxy-5-methyl-4-[[[2-methyl-1-[[(2-pyridinylmethyl)amino]carbonyl]butyl]-amino]carbonyl]hexyl]-α-[[(1-naphthalenyloxy)acetyl]amino]-, [1S-[1R*(R*),2S*,3S*,4S*(1R*,2R*)]]-1H-imidazole-4-propanamide) (which was disclosed in International Publication Number WO 87/05302, published 11 Sep. 1987) was also determined in each experiment.

[3] = tested on: HIV; conditions: cited from earlier work
[4] = biological target: T1, HIV-1 protease; test: biochemical; conditions: read-out: HIV-1 FITC KI
Outline: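 Enzyme (40 nM stock) and substrate (200 μM stock) incubated with inhibitor, 24–48 two-fold serial concentrations, for 90 min at room temperature, then quenched with avidin beads. Nonlinear least-squares analysis gives Ki; a known-Ki inhibitor validates each run.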

CCCC(c1ccccc1)c1c(O)c2ccccc2oc1=O (stereo not drawn) [Example 10, 4-Hydroxy-3-(1-phenylbutyl)-coumarin]
IC50 [1]: 1710 nM | inhibition at 0.098 µM [1]: < 10% | inhibition at 0.196 µM ([1]; read-out: HIV-1 Protease % Inhib, dose 0.196 uM): < 10% | inhibition at 0.78 µM [1]: 33.2% | inhibition at 1.56 µM [1]: 53.6% | inhibition at 12.5 µM [1]: 91.5% | inhibition at 25 µM [1]: 88% | inhibition at 50 µM [1]: 102% | inhibition at 100 µM [1]: 109% | inhibition at 100 µM [2]: 0% | inhibition at 300 µM [2]: 57%

O=c1[nH]cnc2c1ncn2[C@H]1CC[C@@H](CO)O1 [ddI]
effect on liver ([3]; human, in vivo): stimulate hepatic glycolysis leading to irreversible liver damage | limiting toxicity ([3]; humans): peripheral neuropathy and pancreatitis

Cc1cn([C@H]2C[C@H](N=[N+]=[N-])[C@@H](CO)O2)c(=O)[nH]c1=O [AZT, 3'-azido-3'-deoxy-thymidine]
clinical effect in HIV infection/AIDS ([3]; humans): decrease the mortality and frequency of opportunistic infections associated with AIDS

Nc1ccn([C@H]2CC[C@@H](CO)O2)c(=O)n1 [ddC]
limiting toxicity ([3]; humans): peripheral neuropathy which is reversible at low doses

CCCCC(c1ccccc1)c1c(O)c2ccccc2oc1=O (stereo not drawn) [Example 11, 4-Hydroxy-3-(1-phenylpentyl)-coumarin]
IC50 [1]: 1890 nM | inhibition at 0.098 µM [1]: < 10% | inhibition at 0.195 µM ([1]; read-out: HIV-1 Protease % Inhib, dose 0.195 uM): < 10% | inhibition at 0.39 µM ([1]; read-out: HIV-1 Protease % Inhib, dose 0.390 uM): 19.2% | inhibition at 0.78 µM [1]: 27.1% | inhibition at 1.56 µM [1]: 58.1% | inhibition at 3.13 µM ([1]; read-out: HIV-1 Protease % Inhib, dose 3.130 uM): 63.1% | inhibition at 6.25 µM ([1]; read-out: HIV-1 Protease % Inhib, dose 6.250 uM): 70.4% | inhibition at 12.5 µM [1]: 82% | inhibition at 25 µM [1]: 95.8% | inhibition at 50 µM [1]: 90.7% | inhibition at 100 µM [1]: 105% | inhibition at 200 µM ([1]; read-out: HIV-1 Protease % Inhib, dose 200.000 uM): 107% | inhibition at 100 µM [2]: 64% | inhibition at 300 µM [2]: 78%

O=c1oc2c(c(O)c1C(c1ccccc1)C1CC1)CCCCCC2CC1CC1 (stereo not drawn) [Example 121, 10-Cyclopropylmethyl-3-(cyclopropyl-phenyl-methyl)-4-hydroxy-5,6,7,8,9,10-hexahydro-cycloocta[b]pyran-2-one]
inhibition at 0.123 µM [1]: 37.1% | inhibition at 0.37 µM [1]: 74.9% | inhibition at 1.1 µM [1]: 99.5% | inhibition at 3.3 µM [1]: 106% | inhibition at 10 µM [1]: 108% | inhibition at 30 µM [1]: 109% | Ki [4]: 24 nM

O=c1oc2c(c(O)c1C(c1ccccc1)C1CC1)CCCC2 (stereo not drawn) [Example 115, 3-(Cyclopropylphenylmethyl)-5,6,7,8-tetraphydro-4-hydroxy-2H-1-benzopyran-2-one]
inhibition at 1 µM ([1]; read-out: HIV-1 Protease % Inhib, dose 1.000 uM): 62.1% | inhibition at 10 µM [1]: 102% | inhibition at 100 µM [1]: 129% | Ki [4]: 177 nM

O=c1oc2c(c(O)c1C(c1cccc(NS(=O)(=O)Nc3ccccc3)c1)C1CC1)CCCCCC2 (stereo not drawn) [Example 397]
inhibition at 0.123 µM [1]: 35.7% | inhibition at 0.37 µM [1]: 92.9% | inhibition at 1.1 µM [1]: 105% | inhibition at 3.3 µM [1]: 109% | inhibition at 10 µM [1]: 116% | inhibition at 30 µM [1]: 113% | Ki [4]: 7.3 nM
